# How the values were obtained:
# Format in all cases: in vivo, human
# [1] = system: venous, reticular or capillary vessels of treated subjects; test: Clinical observation of treated subjects: venous functionality, sclerosing effect, side effects; settings: for sclerosing effect (venous, reticular or capillary parietal damage): diluted solution according to the invention, intravenous
# Description: It is administered parenterally via the intravenous route.
# Moreover, its use, for at least 4 applications every two months, contributes in determining a higher overall well-being, associated with an anti-inflammatory activity and with the modulation of several molecular markers of the immune and endothelial system. This modulation in addition to ameliorating the venous system functionality, which is objectively observed in most of the treated subjects (95-98%) and results in a reduction of the limbs heaviness sensation and of orthostatic oedema and cellulitis, exert a systemic effects, often also accompanied by an improved skin trophism.
# There is almost no evidence even of quite common reactions (0.1-1%), such as superficial thrombophlebitis, allergic dermatitis, hives, erythema, skin necrosis.
# Therefore, a further aspect of the present invention is a composition comprising polidocanol in concentration below 0.1%, preferably of from 0.03 to 0.09% by weight, preferably of from 0.04 to 0.08%, preferably of 0.05%-0.06% in saline solution (0.9% w/V NaCl) for use as immunomodulating and anti-inflammatory agent.
# [2] = system: patients with C2 CEAP Class and bearing lower limbs varices; test: Venous refilling time measurement via photoplethysmography (FPG); settings: for venous refilling time (VRT): Diluted Polidocanol Group
# Description: The results were confirmed by photoplethysmography in a limited number of patients (n=20) wherein the measurement of venous refilling registered and examined, compared to the beginning of the treatment (after at least 4 sessions), has evidenced an increase of the peripheral venous refilling time in 17 out of 20 cases, indicating a plausible increase of venous resistance, i.e. a reduction of the peripheral reticulo-capillary bed or anyway of the superficial venous system. • 9. Improvement of the so-called “cellulitis”. The results were as follows:
# 40 patients with C2 CEAP Class and bearing lower limbs varices were examined via photoplethysmography exam with a Photoplethysmograph with Light Reflection Rheography/1-Channel (Vasoquant 1000 D-Ppg), they were divided into two homogeneous groups wherein the venous refilling time was measured before and after the hemodynamic therapy.
# In the Diluted Polidocanol Group the hemodynamic therapy was followed after 30 days by sclerosing treatment with diluted polidocanol, prepared as described in example 1. In the Basal Group, after hemodynamic therapy no further treatment was carried out.
# In the Basal Group of 20 patients, measurements of the refilling time of the superficial veins (SV) via photoplethysmography (FPG) exam were carried out at time zero, at time 1 (1 month) after hemodynamic (surgical) therapy on the varices, and at time 6 (6 months) without any further treatment.
# In the Diluted Polidocanol Group of 20 patients, measurements of the refilling time of the SV via FPG were carried out at time zero, at 1 month after hemodynamic (surgical) therapy on the varices, and at time 6 (6 months) after 3-4 sessions of sclerotherapy with the method of the invention.
# subject with psoriasis = test: Skin rashes in a subject with psoriasis after a single treatment; settings: pictures at T=0 and after 30 days (FIG. 3)
# Description: FIG. 3. Treatment of peripheral venous insufficiency in a subject with psoriasis. The subject was treated with a single dose of diluted polidocanol 0.1%. Pictures were taken at T=0 (panel A) and after 30 days (panel B).
# [3] = system: patients suffering from venous insufficiency from minor to severe; test: Likert survey on the "inflammatory" state in treated subjects
# Description: A commercially available polidocanol solution (Atossisclerol®) was diluted to 0.05% with a physiological saline solution. A 1.4% sodium bicarbonate solution was then added in order to obtain a final concentration of 0.06%. […] To the questions on the quality of life, 10 more specific questions were added in order to assess possible variations of the “inflammatory” state (n=100 patients) after the treatment. The survey was based on the indications of: “Evaluation by Likert-type scale 4-point (0-absent, 1-moderate, 2-severe and 3-very severe)” Elleuch et al. Adv Ther. 2016 September; 33(9):1536-49. […] The survey was tailored on the Likert scale and aimed at evaluating the reduction of a number of symptoms related to chronic phlogosis, such as arthrosic or arthritis manifestations (both generic and autoimmune) with particular reference to articular mobility and pain, in subjects not suffering from full-blown diseases and apparently normal. The answers were indexed according to a scale from 0 to 3 (or from 0 to 2). Table 1 summarizes the percent individuals reporting an improvement of 50% after 4 or 15 treatments according to the invention, by self-assessment according to the Liked scale described above, for each of the following sign or symptom: […]
# [4] = % of patients, n=100, after at least 4-5 treatments
# [5] = after several treatments (12-14)
# [6] = compared to the previous year, n=100
# [7] = up to 2 months after the treatment, n=100
substance,measurement,setting,value
Polidocanol [diluted polidocanol],treated subjects in which ameliorated venous system functionality is objectively observed,[1]; at least 4 applications every two months,95-98%
same,side effects,"[1]; concentrations of the treatment according to the invention, vs traditional sclerotherapy",very limited to zero side effects
same,"sclerosing effect (venous, reticular or capillary parietal damage)",[1],does not exert a sclerosing effect
same,"sclerosing effect (venous, reticular or capillary parietal damage)",[1]; listed as polidocanol,non-sclerosing effect
same,polidocanol concentrations having a sclerosing effect on small calibre capillaries or reticular veins,"[1]; human, in vivo",≥ 0.12%
same,patients with an improved index according to FPG exam,"[2]; 6 months, after 3-4 sessions, 18 out of 20",90%
same,venous refilling time (VRT),"[2]; 1 month, basal 24.3±6.78, p<0.05",35.3 ± 4.14 s
same,venous refilling time (VRT),"[2]; 6 months, after 3-4 sessions, p<0.05 vs 1 month",37.6 ± 4.13 s
same,"refilling time at T6, Diluted Polidocanol Group vs basal group","[2]; T6 (6 months), basal group 35, p<0.001 Chi-squared test",38 s
same,cases with increase of the peripheral venous refilling time,"[2]; n=20, after at least 4 sessions, compared to the beginning of the treatment",17 out of 20
same,skin rashes in a subject with psoriasis,subject with psoriasis,improve visibly the skin rashes
same,"1. Articular mobility, % individuals reporting an improvement of 50%","[3]; 4 treatments, 100 individuals",78%
same,"2. Reduction of pain, % individuals reporting improvement","[3]; 4 treatments, 100 individuals",68%
same,"3. Reduction of symptoms, % individuals reporting improvement","[3]; 4 treatments, 100 individuals",30%
same,"4. Skin trophism, % individuals reporting improvement","[3]; 4 treatments, 100 individuals",87%
same,"5. Hair, % individuals reporting improvement","[3]; 4 treatments, 100 individuals",90%
same,"6. Reduction of infections, % individuals reporting improvement","[3]; 4 treatments, 100 individuals",70%
same,"7. Feeing of wellness, % individuals reporting improvement","[3]; 4 treatments, 100 individuals",30%
same,"8. Feeling of lightness (lower limbs), % individuals reporting improvement","[3]; 4 treatments, 100 individuals",70%
same,"9. Improvement of ""cellulitis"", % individuals reporting improvement","[3]; 4 treatments, 100 individuals",54%
same,"10. Improvement of sleep-wake rythm, % individuals reporting improvement","[3]; 4 treatments, 100 individuals",30%
same,"Don't feel stopping treatment, % individuals","[3]; 4 treatments, 100 individuals",26%
same,"1. Articular mobility, % individuals reporting an improvement of 50%","[3]; 15 treatments, 200 individuals",90%
same,"2. Reduction of pain, % individuals reporting improvement","[3]; 15 treatments, 200 individuals",82%
same,"3. Reduction of symptoms, % individuals reporting improvement","[3]; 15 treatments, 200 individuals",60%
same,"4. Skin trophism, % individuals reporting improvement","[3]; 15 treatments, 200 individuals",98%
same,"5. Hair, % individuals reporting improvement","[3]; 15 treatments, 200 individuals",95%
same,"6. Reduction of infections, % individuals reporting improvement","[3]; 15 treatments, 200 individuals",85%
same,"7. Feeing of wellness, % individuals reporting improvement","[3]; 15 treatments, 200 individuals",70%
same,"8. Feeling of lightness (lower limbs), % individuals reporting improvement","[3]; 15 treatments, 200 individuals",98%
same,"9. Improvement of ""cellulitis"", % individuals reporting improvement","[3]; 15 treatments, 200 individuals",86%
same,"10. Improvement of sleep-wake rythm, % individuals reporting improvement","[3]; 15 treatments, 200 individuals",56%
same,"Don't feel stopping treatment, % individuals","[3]; 15 treatments, 200 individuals",56%
same,"Feeling of lightness in the lower limbs, 0: no variations","[3]; % of patients, n=100",2%
same,"Feeling of lightness in the lower limbs, 1: lighter limbs","[3]; % of patients, n=100",70%
same,"Feeling of lightness in the lower limbs, 2: lighter limbs and no oedema in the evenings","[3]; % of patients, n=100",28%
same,"Improvement of ""cellulitis"", 1: lighter limbs","[3]; % of patients, n=100",54%
same,"Improvement of ""cellulitis"", 2: lighter limbs and no oedema in the evenings","[3]; % of patients, n=100",36%
same,"Improvement of skin trophism, 0: no variations","[3]; % of patients, n=100",5%
same,"Improvement of the hair trophism, results positive","[3]; % of patients, n=100",90%
same,"Improvement of the sleep-wake rhythm, 0: no variations","[3]; % of patients, n=100",63%
same,"Improvement of the sleep-wake rhythm, 1: I don't know: maybe","[3]; % of patients, n=100",30%
same,"Improvement of the sleep-wake rhythm, 2: I'm sleeping better and wake-up more rested","[3]; % of patients, n=100",7%
same,"Improvement of the so-called ""cellulitis"", 0: no variations","[3]; % of patients, n=100",10%
same,"Reduction of pain related to chronic inflammatory events, 0: no variations","[3]; % of patients, n=100",20%
same,"Reduction of pain, 1: 20% reduction of pain-related symptoms","[3]; % of patients, n=100",12%
same,"Reduction of pain, 2: 50% reduction of pain-related symptoms","[3]; % of patients, n=100",68%
same,"Reduction of pain, 3: 70% reduction of pain-related symptoms","[3]; % of patients, n=100",0%
same,"Skin trophism, 1: slight improvement of the skin elasticity and of the trophism at the touch in the lower limbs","[3]; % of patients, n=100",87%
same,"Skin trophism, 2: slight improvement of the skin elasticity and of the trophism at the touch in the whole body","[3]; % of patients, n=100",60%
same,"Skin trophism, 3: improvement extended to the skin of the face","[3]; % of patients, n=100",16%
same,"Articular mobility, 0: no variations",[3]; [4],13%
same,"Articular mobility, 1: 20% mobility improvement",[3]; [4],7%
same,"Articular mobility, 2: 50% mobility improvement",[3]; [4],78%
same,"Articular mobility, 3: 70% mobility improvement",[3]; [4],2%
same,cases with improved skin elasticity and smoother skin also in the face,[3]; [5],16%
same,cases with improved skin elasticity and smoother skin in general,[3]; [5],60%
same,"Reduction of infective events, 0: no variations",[3]; [6],18%
same,"Reduction of infective events, 1: maybe less infective events",[3]; [6],12%
same,"Reduction of infective events, 2: definitely significant reduction",[3]; [6],70%
same,"Reduction of symptoms, 1: 20% attenuation of manifestations related to skin and articular mobility","[3]; number of patients, n=12",5 N.
same,"Reduction of symptoms, 2: 50% attenuation of manifestations related to skin and articular mobility","[3]; number of patients, n=12",4 N.
same,"Reduction of symptoms, 3: 70% attenuation of manifestations related to skin and articular mobility","[3]; number of patients, n=12",1 N.
same,"Reduction of symptoms of chronic degenerative pathologies of immune and inflammatory genesis, 0: no variations","[3]; number of patients, n=12 (e.g. psoriasis, rheumatoid arthritis)",2 N.
same,"Feeling of well-being, 0: no variations",[3]; [7],12%
same,"Feeling of well-being, 1: I feel a bit better but I don't know",[3]; [7],32%
same,"Feeling of well-being, 2: I feel a bit better in the sense that I have a feeling of well-being",[3]; [7],30%
same,"Feeling of well-being, 3: life without the treatment is not the same, I feel the need to undergo treatment",[3]; [7],26%

# From patent US12016831B2, “Polidocanol for use as immunomodulating agent” (priority 2018, dated 2024)
